The text below walks through data of BindingDB's records for PubMed 9536007 (University of Bonn, 1998).

Values joined by “and” are separate entries in the source; they are usually repeats but may differ in a detail not shown here. Equal entries are not always repeated. Structures can show the parent of a compound that is named as a salt.

Nischarin, sequence (Q4G017 whole entry): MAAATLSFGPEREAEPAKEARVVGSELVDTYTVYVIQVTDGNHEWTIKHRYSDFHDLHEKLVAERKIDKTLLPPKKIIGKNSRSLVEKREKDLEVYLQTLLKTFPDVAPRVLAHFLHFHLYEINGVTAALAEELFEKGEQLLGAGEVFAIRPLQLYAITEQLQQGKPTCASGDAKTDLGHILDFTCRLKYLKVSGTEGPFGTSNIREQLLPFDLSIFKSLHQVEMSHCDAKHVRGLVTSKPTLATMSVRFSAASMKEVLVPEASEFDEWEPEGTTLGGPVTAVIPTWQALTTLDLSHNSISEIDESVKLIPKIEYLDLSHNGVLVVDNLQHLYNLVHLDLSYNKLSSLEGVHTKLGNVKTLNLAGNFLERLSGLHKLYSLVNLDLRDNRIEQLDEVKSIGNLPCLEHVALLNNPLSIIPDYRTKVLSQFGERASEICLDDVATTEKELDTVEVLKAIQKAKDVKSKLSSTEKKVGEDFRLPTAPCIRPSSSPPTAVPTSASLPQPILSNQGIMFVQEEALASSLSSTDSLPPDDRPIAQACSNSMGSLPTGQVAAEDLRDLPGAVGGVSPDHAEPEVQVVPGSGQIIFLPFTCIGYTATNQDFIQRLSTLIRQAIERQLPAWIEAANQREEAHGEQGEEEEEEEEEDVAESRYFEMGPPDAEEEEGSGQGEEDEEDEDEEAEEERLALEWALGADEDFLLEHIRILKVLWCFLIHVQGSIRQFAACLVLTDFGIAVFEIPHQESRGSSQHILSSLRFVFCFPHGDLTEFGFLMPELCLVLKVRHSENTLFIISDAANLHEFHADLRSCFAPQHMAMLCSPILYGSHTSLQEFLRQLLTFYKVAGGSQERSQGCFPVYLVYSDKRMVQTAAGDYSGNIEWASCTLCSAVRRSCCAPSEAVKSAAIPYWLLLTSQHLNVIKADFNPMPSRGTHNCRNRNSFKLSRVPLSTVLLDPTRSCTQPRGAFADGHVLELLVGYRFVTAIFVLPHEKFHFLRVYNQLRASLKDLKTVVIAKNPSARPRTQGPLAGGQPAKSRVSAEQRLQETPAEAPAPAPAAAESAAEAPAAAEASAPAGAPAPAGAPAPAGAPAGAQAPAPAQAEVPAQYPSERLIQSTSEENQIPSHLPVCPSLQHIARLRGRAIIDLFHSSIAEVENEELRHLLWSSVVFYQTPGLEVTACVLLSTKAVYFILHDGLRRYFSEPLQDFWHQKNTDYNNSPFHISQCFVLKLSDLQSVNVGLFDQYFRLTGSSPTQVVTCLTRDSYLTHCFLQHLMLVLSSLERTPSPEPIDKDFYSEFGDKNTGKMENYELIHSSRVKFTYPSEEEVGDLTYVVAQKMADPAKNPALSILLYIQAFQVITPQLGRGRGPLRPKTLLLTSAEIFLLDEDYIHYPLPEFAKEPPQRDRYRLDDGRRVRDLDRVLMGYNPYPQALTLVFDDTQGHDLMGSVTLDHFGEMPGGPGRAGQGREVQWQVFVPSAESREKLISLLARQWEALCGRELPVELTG

The assay addresses Nischarin (Rattus norvegicus, UniProt Q4G017).
Take `CN/C([CH-][N+](=O)[O-])=[NH+]\CCSCc1ccc(CN(C)C)o1`: the inhibition constant (Ki) is above 10 µM.
The compound `N=C(N)NCCCCN` registered a Ki above 10 µM.
The figure for `Clc1cccc(Cl)c1N=C1NCCN1` [2-(2,6-dichloroanilino)-2-imidazoline] is 2.52 µM and > 10 µM; for `O=C(CCCN1CCC(O)(c2ccc(Cl)cc2)CC1)c1ccc(F)cc1` [4-[4-(4-Chloro-phenyl)-4-hydroxy-piperidin-1-yl]-1-(4-fluoro-phenyl)-butan-1-one;propionate(HCl)] it is 0.5 µM; for `COc1nc(C)nc(Cl)c1N=C1NCCN1` [(4-Chloro-6-methoxy-2-methyl-pyrimidin-5-yl)-imidazolidin-2-ylidene-amine] it is above 10 µM.
`C[C@]12NC(Cc3ccccc31)c1ccccc12` [(5S,10S)-(+)-5-methyl-10,11-dihydro-5Hdibenzo[a,d]cyclohepten-5,10-imine] returned a Ki above 10 µM.
Consider `Cc1ccccc1NC(=N)Nc1ccccc1C` [CAS_97-39-2], for which the Ki is 0.93 µM.
`CCCN1CCC[C@@H](c2cccc(O)c2)C1` [Preclamol] displayed a Ki above 10 µM.
The figure for `CC(C)=CCN1CC[C@@]2(C)c3cc(O)ccc3C[C@@H]1[C@@H]2C` [Talwin] is above 10 µM.
Take `NCCc1c[nH]cn1` [[3H]histamine]: the inhibition constant (Ki) was above 10 µM.
In the case of `COC(=O)[C@@H]1[C@H]2C[C@H]3c4[nH]c5ccccc5c4CCN3C[C@@H]2CC[C@@H]1O` [yohimbic acid methyl ester] it was above 10 µM.
